{"source": "PubChem BioAssay AID588780", "about": "(Sanford-Burnham Center for Chemical Genomics, 2011)", "note": "The source made the active and inactive calls.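 The calls were made as follows: active = compounds whose fitted half-maximal concentration in the cell-protection dose series is at or below a set limit; inactive = the rest.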", "data": [{"tested_on": "H9c2 cardiomyocytes, 2-deoxyglucose stress, ATP luminescence, 2 h", "assay": "protection of cardiomyocytes from 2-deoxyglucose injury, dose response, cell-based, 2-deoxyglucose stress, uHTS hits (AID 588780)", "values": [{"molecule": "N#CC1(NC(=O)COC(=O)Cn2[nH]c(=O)c3ccccc3c2=O)CCCCC1", "IC50": "> 79 µM (inactive)"}, {"molecule": "Cc1ccc(-c2n[nH]c(=O)c3ccccc23)cc1S(=O)(=O)Nc1ccccc1", "IC50": "> 79 µM (inactive)"}, {"molecule": "COc1ccc(-n2cc(-c3ccccc3)c3c(N4CCOCC4)ncnc32)cc1", "IC50": "> 79 µM (inactive)"}, {"molecule": "CCn1ncc2c1C(=O)NC1c3ccccc3C(=O)N21", "note": "(configuration not stated)", "IC50": "> 79 µM (inactive)"}, {"molecule": "CNC(=O)c1cccc(NC(=O)c2cc(-c3ccccc3)nc3c2cnn3C(C)C)c1", "IC50": "> 79 µM (inactive)"}, {"molecule": "CC1(c2ccccc2)NC(=O)N(CC(=O)Nc2cccc(/C=C/c3ccccn3)c2)C1=O", "note": "(configuration not stated)", "IC50": "19 µM"}, {"molecule": "CC(Oc1cccc(Br)c1)C(=O)NNC(=O)c1ccccn1", "note": "(configuration not stated)", "IC50": "> 79 µM (inactive)"}, {"molecule": "CC(=O)c1cccc(NC(=O)Nc2ccc3c(c2)N(C)C(=O)CS3)c1", "IC50": "> 79 µM (inactive)"}, {"molecule": "COc1cccc(-c2cnc3c(NC=O)cc(-c4ccc(O)c(OC)c4)cn23)c1", "IC50": "> 79 µM (inactive)"}, {"molecule": "CC(OC(=O)c1cc(-c2cccnc2)nc2ccccc12)C(=O)Nc1ccc2ccccc2c1", "note": "(configuration not stated)", "IC50": "11 µM"}, {"molecule": "CCc1cc2cccc(C)c2nc1SCC(=O)N1CCN(C(=O)c2ccco2)CC1", "IC50": "> 79 µM (inactive)"}, {"molecule": "Cc1cc(C)cc(N(CCC#N)C(=O)COC(=O)Cn2[nH]c(=O)c3ccccc3c2=O)c1", "IC50": "> 79 µM (inactive)"}, {"molecule": "CN(C(=O)c1sc2nc(N3CCOCC3)c3c(c2c1N)CCCC3)c1ccccc1", "IC50": "5.73 µM"}, {"molecule": "O=S(=O)(c1cccc(F)c1)N1CCN(c2nc(-c3cccnc3)nc3ccccc23)CC1", "IC50": "16.1 µM"}, {"molecule": "Cc1ccc(-c2nn3c(C)nnc3c3ccccc23)cc1S(=O)(=O)NC(C)c1ccccc1", "note": "(configuration not stated)", "IC50": "> 79 µM (inactive)"}, {"molecule": "CC(=O)Nc1ccc(C(=O)Nc2nc(-c3ccccn3)cs2)cc1", "IC50": "32.1 µM (inactive)"}, {"molecule": "O=C(CSc1nc2ccccc2c(=O)[nH]1)N1CCCCC1", "IC50": "> 79 µM (inactive)"}, {"molecule": "CC(C)(C)c1ccc(OCC(=O)Nc2ccc3c4c(cccc24)C(=O)NC3=O)cc1", "IC50": "> 79 µM (inactive)"}, {"molecule": "COc1cc(-c2cc(C(=O)OCC(=O)NC3CC3)c3ccccc3n2)cc(OC)c1OC", "IC50": "10.7 µM"}, {"molecule": "Cc1ccc(CN(C)C(=O)COC(=O)CSc2ccc(C(N)=O)cc2[N+](=O)[O-])cc1", "IC50": "31.3 µM (inactive)"}, {"molecule": "COc1ccc2c(c1OC)C(=O)N1c3ccccc3C(=O)N(c3ccccc3)C21", "note": "(configuration not stated)", "IC50": "> 79 µM (inactive)"}, {"molecule": "O=C/C(=C\\Nc1ccccn1)c1nc2cc(Cl)ccc2o1", "IC50": "> 79 µM (inactive)"}, {"molecule": "COc1ccc(Br)cc1C(=O)Nc1cccc(NC(=O)c2ccco2)c1", "IC50": "> 79 µM (inactive)"}, {"molecule": "CCCn1c(=O)c2[nH]c(-c3ccc(OCC(=O)Nc4ccc(C#N)cc4)cc3)nc2n(CCC)c1=O", "IC50": "> 79 µM (inactive)"}, {"molecule": "COc1ccc(-c2cc(NC=O)c3ncc(-c4ccccc4)n3c2)cc1OC", "IC50": "> 79 µM (inactive)"}, {"molecule": "O=C(CN1C(=O)C2C3C=CC(C3)C2C1=O)Nc1nc(-c2ccccn2)cs1", "note": "(configuration not stated)", "IC50": "29 µM"}, {"molecule": "CCOc1ccc(NC(=O)c2cc3c(C)nc4ccccc4c3o2)cc1", "IC50": "17.1 µM"}, {"molecule": "COc1cc(/C=N/NC(=O)NC23CC4CC(CC(C4)C2)C3)ccc1OCC(N)=O", "IC50": "> 79 µM (inactive)"}, {"molecule": "CCOc1ccc2[nH]c(=O)c(CN(CCO)C3(c4nnnn4C4CCCCC4)CCCCC3)cc2c1", "IC50": "35.1 µM (inactive)"}, {"molecule": "CSCCC(NS(=O)(=O)c1ccccc1)C(=O)OCc1cc(=O)oc2cc(O)ccc12", "note": "(configuration not stated)", "IC50": "> 79 µM (inactive)"}, {"molecule": "COc1cc(/C=N/n2nnnc2Nc2ccccc2)cc(OC)c1OC", "IC50": "26.8 µM"}, {"molecule": "COC(=O)c1ccc(Cn2nnc3c(=O)[nH]c(C4CCCN(S(=O)(=O)c5ccccc5)C4)nc32)cc1", "note": "(configuration not stated)", "IC50": "> 79 µM (inactive)"}, {"molecule": "O=C(CNC(=O)c1ccc(F)cc1)N/N=C/c1cc(Br)ccc1OC(=O)/C=C/c1ccco1", "IC50": "> 79 µM (inactive)"}, {"molecule": "Cc1ccc2c(c1)nc1c3ccccc3nc(-c3ccccc3N)n21", "IC50": "> 79 µM (inactive)"}, {"molecule": "O=C(CCc1nc2ccccc2c(=O)[nH]1)N1CCN(c2ccccc2Cl)CC1", "IC50": "> 79 µM (inactive)"}, {"molecule": "COC(=O)c1cc(OC)c(OC)cc1NC(=O)c1ccc(OC)c(OC)c1", "IC50": "> 79 µM (inactive)"}, {"molecule": "COc1ccc(/C=N/NC(=O)c2cccnc2)cc1CN1CCc2ccccc2C1", "IC50": "> 79 µM (inactive)"}, {"molecule": "COc1ccc(NS(=O)(=O)c2ccc3ccccc3c2)c2ncccc12", "IC50": "> 79 µM (inactive)"}, {"molecule": "Nc1c(C(=O)N/N=C/c2cccnc2)oc2nc(-c3ccco3)cc(-c3ccco3)c12", "IC50": "> 79 µM (inactive)"}, {"molecule": "CCC(C)N(C(=O)COC(=O)Cc1n[nH]c(=O)c2ccccc12)C1CCS(=O)(=O)C1", "note": "(configuration not stated)", "IC50": "> 79 µM (inactive)"}, {"molecule": "CCN(CC(=O)Nc1cc(Cl)ccc1C)C(=O)CCc1nc2ccccc2c(=O)[nH]1", "IC50": "> 79 µM (inactive)"}, {"molecule": "COC(=O)c1ccc(Cn2c(C)c(C(=O)NCc3cccs3)sc2=O)o1", "IC50": "> 79 µM (inactive)"}, {"molecule": "O=C(NCC(=O)N(Cc1cccs1)C(C(=O)NC1CCCCC1)c1ccco1)c1cccs1", "note": "(configuration not stated)", "IC50": "15.3 µM"}, {"molecule": "O=c1[nH]c2cccc(Cl)c2c2ccccc12", "IC50": "> 79 µM (inactive)"}, {"molecule": "CCOc1ccc(C(=O)COC(=O)Cn2[nH]c(=O)c3ccccc3c2=O)cc1", "IC50": "> 79 µM (inactive)"}, {"molecule": "O=C(Nc1ccccc1)c1nc[nH]c1C(=O)NCCCCNC(=O)c1[nH]cnc1C(=O)Nc1ccccc1", "IC50": "> 79 µM (inactive)"}, {"molecule": "COc1ccccc1-c1cc(NC(C)=O)c2ncc(-c3cccc(C(C)=O)c3)n2c1", "IC50": "13.5 µM"}, {"molecule": "COc1ccccc1NC(=O)CSc1ccc2nnc(-c3ccc(C)cc3)n2n1", "IC50": "> 79 µM (inactive)"}, {"molecule": "Cc1cc(C)nc(SCc2ccc(C(=O)N/N=C/c3ccccn3)cc2)n1", "IC50": "> 79 µM (inactive)"}, {"molecule": "Fc1ccc(NC(=S)Nc2ccc3nccnc3c2)cc1", "IC50": "> 79 µM (inactive)"}, {"molecule": "COC(=O)c1cc(OC)c(OC)cc1NC(=O)c1ccc(C)o1", "IC50": "25.9 µM"}, {"molecule": "COc1ccc(-c2cc3nc(C)cc(N4CCN(C(=O)c5ccoc5)CC4)n3n2)cc1", "IC50": "51.7 µM (inactive)"}, {"molecule": "CCCn1nc(C(=O)Nc2nc(-c3ccccn3)cs2)c2ccccc2c1=O", "IC50": "> 79 µM (inactive)"}, {"molecule": "CC(OC(=O)c1cc2c(ccc3ccccc32)oc1=O)c1nc2ccccc2s1", "note": "(configuration not stated)", "IC50": "15.7 µM"}, {"molecule": "COc1ccc(-c2ccc3[nH]c4c(c3c2)CCN2C[C@H]3[C@H](C)ON(C)[C@H]3C[C@@H]42)cc1", "IC50": "46.8 µM (inactive)"}, {"molecule": "COc1ccc(C=NNc2nc3c([nH]2)c(=O)n(C)c(=O)n3C)cc1", "IC50": "> 79 µM (inactive)"}, {"molecule": "O=C(NC1CCCCC1)C(c1ccc2ncccc2c1)N(Cc1cccs1)C(=O)c1cccs1", "note": "(configuration not stated)", "IC50": "22 µM"}, {"molecule": "O=C(CN1CCN(S(=O)(=O)c2ccc(Br)cc2)CC1)c1ccc(O)c(O)c1", "IC50": "19.8 µM"}, {"molecule": "Cn1nc(-c2ccccc2F)c2cc(C(=O)Nc3ccc4c(c3)OCCO4)sc21", "IC50": "> 79 µM (inactive)"}, {"molecule": "CCOc1cc(/C=C/c2ccc3cccc([N+](=O)[O-])c3n2)ccc1OCC(=O)N(C)C", "IC50": "12.5 µM"}, {"molecule": "CC(C)N1C(=O)S/C(=C/c2ccc3c(c2)n(C)c(=O)n3C)C1=O", "IC50": "> 79 µM (inactive)"}, {"molecule": "COc1ccc(COc2cc(-c3cccc(OC)c3)nc3ccc(NC(=O)c4cccnc4)cc23)cc1", "IC50": "> 79 µM (inactive)"}, {"molecule": "COc1ccc(-c2ccc3c(c2)S(=O)(=O)c2cccc(C(=O)N4CCN(c5ccccn5)CC4)c2C3=O)cc1OC", "IC50": "13.7 µM"}, {"molecule": "O=C(Cn1nc(C(=O)O)c2ccccc2c1=O)c1c[nH]c2ccccc12", "IC50": "36.3 µM (inactive)"}, {"molecule": "O=C(NNC(=O)c1cc2cc(Br)ccc2oc1=O)c1ccc(O)cc1O", "IC50": "31.7 µM (inactive)"}, {"molecule": "O=c1c2ccccc2nc(-c2ccc(Cl)c(Cl)c2)n1O", "IC50": "8.16 µM"}, {"molecule": "COc1ccc2[nH]c(=O)c(CN(c3ccccc3OC)S(=O)(=O)c3ccccc3)cc2c1", "IC50": "15.1 µM"}]}]}
